Measured values: patent US9481654B2, “Compositions and methods for inhibition of the JAK pathway” (Rigel Pharmaceuticals, Inc., priority 2006, dated 2016)
pIC50: −log10 of the molar value. Where a name gives a salt, the structure may show the parent alone.

Test system: IL-4 stimulated CD23 upregulation in human Ramos B cells (JAK-1/JAK-3, Stat-6)
Assay: Assay for Ramos B-Cell Line Stimulated with IL-4 (CD23 upregulation, FACS)
Type: cell-based
Source text: One means of assaying for such inhibition is detection of the effect of the 2,4-pyrimidinediamine compounds on the upregulation of downstream gene products. In the Ramos/IL4 assay, B-cells are stimulated with the cytokine Interleukin-4 (IL-4) leading to the activation of the JAK/Stat pathway through phosphorylation of the JAK family kinases, JAK1 and JAK3, which in turn phosphorylate and activate the transcription factor Stat-6. […] To study the effect of inhibitors (e.g., the 2,4-substituted pyrimindinediamine compounds described herein) on the JAK1 and JAK3 kinases, human Ramos B cells are stimulated with human IL-4. 20 to 24 hours post stimulation, cells are stained for upregulation of CD23 and analyzed using flow cytometry (FACS).
B-cells stimulated with cytokine Interleukin-4 (IL-4) activate the JAK/Stat pathway through phosphorylation of the JAK family kinases, JAK-1 and JAK-3, which in turn phosphorylate and activate the transcription factor Stat-6. […] To study the effect of inhibitors on the JAK family kinases, human Ramos B cells are stimulated with human IL-4.
Cells were maintained at a density of 3.5×10^5. The day before the experiment, Ramos B-cells were diluted to 3.5×10^5 cells/mL to ensure that they were in a logarithmic growth phase.
Cells were spun down and suspended in RPMI with 5% serum. 5×10^4 cells were used per point in a 96-well tissue culture plate. Cells were pre-incubated with compound or DMSO (Sigma-Aldrich, St. Louis, Mo., Cat No. D2650) vehicle control for 1 hour in a 37° C. incubator. Cells were then stimulated with IL-4 (Peprotech Inc., Rocky Hill, N.J., Cat No. 200-04) for a final concentration of 50 units/mL for 20-24 hours. […] Detection was performed using a BD LSR I System Flow Cytometer, purchased from Becton Dickinson Biosciences of San Jose, Calif.

[1] = Table III Example 3, sodium salt

Row | Compound | pIC50 (Table III Example 3) | pIC50 [1]
1 | Cc1cnc(Nc2cccc(S(=O)(=O)NC(=O)CNC(=O)OCc3ccccc3)c2)nc1Nc1cccc(CNS(=O)(=O)C2CC2)c1 [Compound I-142, N2-{3-N-[2-(benzoxycarbonylamino)-1-oxoethyl]aminosulfonyl}phenyl-N4-(3-cyclopropylsulfonylaminomethyl)phenyl-5-methyl-2,4-pyrimidinediamine] | 5.25 | 
2 | Cc1cnc(Nc2cccc(S(=O)(=O)NC(=O)CNC(=O)OCc3ccccc3)c2)nc1Nc1cccc(CNS(=O)(=O)C2CC2)c1 [Compound I-143, N2-{3-N-[2-(benzoxycarbonylamino)-1-oxoethyl]aminosulfonyl}phenyl-N4-(3-cyclopropylsulfonylaminomethyl)phenyl-5-methyl-2,4-pyrimidinediamine sodium salt] |  | 5.14
3 | Cc1cnc(Nc2cccc(S(=O)(=O)NC(=O)[C@@H](NC(=O)OCc3ccccc3)C(C)C)c2)nc1Nc1cccc(CNS(=O)(=O)C2CC2)c1 [Compound I-144, N2-[3-N-(Cbz-L-Val)aminosulfonyl]phenyl-N4-(3-cyclopropylsulfonylaminomethyl)phenyl-5-methyl-2,4-pyrimidinediamine] | 5.11 | 
4 | Cc1cnc(Nc2cccc(S(=O)(=O)NC3(C(=O)O)CCCC3)c2)nc1Nc1cccc(CNS(=O)(=O)C2CC2)c1 [Compound I-145, N2-[3-N-(cycloleucine)aminosulfonyl]phenyl-N4-(3-cyclopropylsulfonylaminomethyl)phenyl-5-methyl-2,4-pyrimidinediamine hydrogen chloride salt] | 5.07 | 
5 | Cc1cnc(Nc2cccc(S(=O)(=O)N[C@H](C(=O)O)C(C)C)c2)nc1Nc1cccc(CNS(=O)(=O)C2CC2)c1 [Compound I-146, N2-[3-N-(L-Val)aminosulfonyl]phenyl-N4-(3-cyclopropylsulfonylaminomethyl)phenyl-5-methyl-2,4-pyrimidinediamine hydrogen chloride salt] | 4.91 | 
6 | Cc1cnc(Nc2cccc(S(=O)(=O)NC(=O)C3(NC(=O)OC(C)(C)C)CCCC3)c2)nc1Nc1cccc(CNS(=O)(=O)C2CC2)c1 [Compound I-148, N2-[3-N-(Boc-cycloleucine)aminosulfonyl]phenyl-N4-(3-cyclopropylsulfonylaminomethyl)phenyl-5-methyl-2,4-pyrimidinediamine] | 4.79 | 
7 | Cc1cnc(Nc2cccc(S(=O)(=O)Nc3cccnc3)c2)nc1Nc1ccc(CNS(=O)(=O)C2CC2)cc1 [Compound I-174, N4-(4-cyclopropylsulfonylaminomethyl)phenyl-5-methyl-N2-[3-(3-pyridyl)aminosulfonyl]phenyl-2,4-pyrimidinediamine] | 5.95 | 
8 | CC(=O)NS(=O)(=O)c1cccc(Nc2ncc(C)c(Nc3cccc(CN(C(C)=O)S(=O)(=O)C4CC4)c3)n2)c1 [Compound I-193, N2-(3-acetamidosulfonyl)phenyl-N4-[3-(N-acetyl-N-cyclopropylsulfonyl)aminomethyl]phenyl-5-methyl-2,4-pyrimidinediamine] | 5.72 | 
9 | CC(=O)NS(=O)(=O)c1ccc(Nc2ncc(C)c(Nc3ccc(CN(C(C)=O)S(=O)(=O)C4CC4)cc3)n2)cc1 [Compound I-194, N2-(4-acetamidosulfonyl)phenyl-N4-[4-(N-acetyl-N-cyclopropylsulfonyl)aminomethyl]phenyl-5-methyl-2,4-pyrimidinediamine] | 5.78 | 
10 | CC(=O)NS(=O)(=O)c1cccc(Nc2ncc(C)c(Nc3cccc(CN(C(C)=O)S(=O)(=O)C4CC4)c3)n2)c1 [Compound I-196, N2-(3-acetamidosulfonyl)phenyl-N4-[3-(N-acetyl-N-cyclopropylsulfonyl)aminomethyl]phenyl-5-methyl-2,4-pyrimidinediamine sodium salt] |  | 5.69
11 | CC(=O)NS(=O)(=O)c1ccc(Nc2ncc(C)c(Nc3ccc(CN(C(C)=O)S(=O)(=O)C4CC4)cc3)n2)cc1 [Compound I-197, N2-(4-acetamidosulfonyl)phenyl-N4-[4-(N-acetyl-N-cyclopropylsulfonyl)aminomethyl]phenyl-5-methyl-2,4-pyrimidinediamine sodium salt] |  | 5.81
12 | Cc1cnc(Nc2cccc(S(=O)(=O)NC(=O)C(C)C)c2)nc1Nc1cccc(CN(C(=O)C(C)C)S(=O)(=O)C2CC2)c1 [Compound I-198, N4-[3-(N-cyclopropylsulfonyl-N-isobutyryl)aminomethyl]phenyl-N2-(3-isobutyrylaminosulfonyl)phenyl-5-methyl-2,4-pyrimidinediamine] | 5.69 | 
13 | Cc1cnc(Nc2ccc(S(=O)(=O)NC(=O)C(C)C)cc2)nc1Nc1ccc(CN(C(=O)C(C)C)S(=O)(=O)C2CC2)cc1 [Compound I-199, N4-[4-(N-cyclopropylsulfonyl-N-isobutyryl)aminomethyl]phenyl-N2-(4-isobutyrylaminosulfonyl)phenyl-5-methyl-2,4-pyrimidinediamine] | 5.90 | 
14 | Cc1cnc(Nc2cccc(S(=O)(=O)NC(=O)C(C)C)c2)nc1Nc1cccc(CN(C(=O)C(C)C)S(=O)(=O)C2CC2)c1 [Compound I-200, N4-[3-(N-cyclopropylsulfonyl-N-isobutyryl)aminomethyl]phenyl-N2-(3-isobutyrylaminosulfonyl)phenyl-5-methyl-2,4-pyrimidinediamine sodium salt] |  | 5.64
15 | Cc1cnc(Nc2ccc(S(=O)(=O)NC(=O)C(C)C)cc2)nc1Nc1ccc(CN(C(=O)C(C)C)S(=O)(=O)C2CC2)cc1 [Compound I-201, N4-[4-(N-cyclopropylsulfonyl-N-isobutyryl)aminomethyl]phenyl-N2-(4-isobutyrylaminosulfonyl)phenyl-5-methyl-2,4-pyrimidinediamine sodium salt] |  | 5.92
16 | CCCC(=O)NS(=O)(=O)c1cccc(Nc2ncc(C)c(Nc3cccc(CN(C(=O)CCC)S(=O)(=O)C4CC4)c3)n2)c1 [Compound I-203, N2-(3-butyrylaminosulfonyl)phenyl-N4-[3-(N-butyryl-N-cyclopropylsulfonyl)aminomethyl]phenyl-5-methyl-2,4-pyrimidinediamine] | 5.52 | 
17 | CCCC(=O)NS(=O)(=O)c1ccc(Nc2ncc(C)c(Nc3ccc(CN(C(=O)CCC)S(=O)(=O)C4CC4)cc3)n2)cc1 [Compound I-204, N2-(4-butyrylaminosulfonyl)phenyl-N4-[4-(N-butyryl-N-cyclopropylsulfonyl)aminomethyl]phenyl-5-methyl-2,4-pyrimidinediamine] | 5.98 | 
18 | CCCC(=O)NS(=O)(=O)c1cccc(Nc2ncc(C)c(Nc3cccc(CN(C(=O)CCC)S(=O)(=O)C4CC4)c3)n2)c1 [Compound I-205, N2-(3-butyrylaminosulfonyl)phenyl-N4-[3-(N-butyryl-N-cyclopropylsulfonyl)aminomethyl]phenyl-5-methyl-2,4-pyrimidinediamine sodium salt] |  | 5.46
19 | CCCC(=O)NS(=O)(=O)c1ccc(Nc2ncc(C)c(Nc3ccc(CN(C(=O)CCC)S(=O)(=O)C4CC4)cc3)n2)cc1 [Compound I-206, N2-(4-butyrylaminosulfonyl)phenyl-N4-[4-(N-butyryl-N-cyclopropylsulfonyl)aminomethyl]phenyl-5-methyl-2,4-pyrimidinediamine sodium salt] |  | 6.02
20 | CCCCCC(=O)NS(=O)(=O)c1cccc(Nc2ncc(C)c(Nc3cccc(CN(C(=O)CCCCC)S(=O)(=O)C4CC4)c3)n2)c1 [Compound I-218, N4-[3-(N-cyclopropylsulfonyl-N-hexanoyl)aminomethyl]phenyl-N2-(3-hexanoylaminosulfonyl)phenyl-5-methyl-2,4-pyrimidinediamine] | 5.42 | 
21 | CCCCCC(=O)NS(=O)(=O)c1cccc(Nc2ncc(C)c(Nc3cccc(CN(C(=O)CCCCC)S(=O)(=O)C4CC4)c3)n2)c1 [Compound I-219, N4-[3-(N-cyclopropylsulfonyl-N-hexanoyl)aminomethyl]phenyl-N2-(3-hexanoylaminosulfonyl)phenyl-5-methyl-2,4-pyrimidinediamine sodium salt] |  | 5.58
22 | CCCCC(=O)NS(=O)(=O)c1cccc(Nc2ncc(C)c(Nc3cccc(CN(C(=O)CCCC)S(=O)(=O)C4CC4)c3)n2)c1 [Compound I-220, N4-[3-(N-cyclopropylsulfonyl-N-valeryl)aminomethyl]phenyl-5-methyl-N2-(3-valerylaminosulfonyl)phenyl-2,4-pyrimidinediamine] | 5.70 | 
23 | CCCC(=O)NS(=O)(=O)c1cccc(Nc2ncc(C)c(Nc3cccc(CN(C(=O)CCC)S(=O)(=O)C4CC4)c3)n2)c1 [Compound I-222, N2-(3-butyrylaminosulfonyl)phenyl-N4-[3-(N-butyryl-N-cyclopropylsulfonyl)aminomethyl]phenyl-5-methyl-2,4-pyrimidinediamine Choline salt] | 5.52 | 
24 | CCCC(=O)NS(=O)(=O)c1cccc(Nc2ncc(C)c(Nc3cccc(CNS(=O)(=O)C4CC4)c3)n2)c1 [Compound I-223, N2-(3-butyrylaminosulfonyl)phenyl-N4-(3-cyclopropylsulfonylaminomethyl)phenyl-5-methyl-2,4-pyrimidinediamine] | 5.43 | 
